# Measurements as given in patent US4835160A, “Derivatives of pyridoindole, having anti-tumor properties” (Sanofi, priority 1986, dated 1989).
# Legend:
# in vivo [1] = experiment: in vivo; parameters: species or system CDF1 hybrid mice; settings: mouse, ip, 50 mg/kg
# From the text: The compounds of the invention benefit from a good tolerance and a weak toxicity.
# Thus the administration, to healthy CDF1 hybrid mice, in a single injection by intraperitoneal route, of the compounds under test, has enabled it to be established that the product is perfectly tolerated at a high dosage since the survival rate of the animals of the experiment was 100 out of 100 thirteen days after administration.
# in vivo [2] = experiment: in vivo; parameters: species or system female CDF1 hybrid mice; settings: mouse, iv
# Protocol: In addition the administration, to healthy female CDF1 hybrid mice, in a single injection by intravenous route with a perfusor, lasting 4 minutes, of the compounds under test in solution in physiological serum at a rate of 0.1 ml of solution per 10 g weight of the animals has enabled it to be established that the compounds are also well tolerated at a high dosage in these conditions.
# [3] = tested on: leukemia tumour line L 1210; experiment: In vitro cytotoxic activity on leukemia tumour line L 1210; format: cell-based; settings: Mus musculus, L1210, 48 h, L 1210, 48 hours contact, 37° C.; read-out: I D 50 (concentration which inhibits the proliferation of the cells by 50%)
# Protocol: (1) In vitro: ([…] et al., Chem. Biol. Interaction, 1979, 25, 45-58). The cytotoxic activity of the compounds of the invention has been evaluated by in vitro tests. These tests consist of adding increasing concentrations of the compound under test to a cellular culture of the leukemia tumour line L 1210 in an exponential phase of growth. The cellules are incubated at 37° C. in a CO2 incubator and counted every 24 hours. The calculation of the I D 50 (concentration of the product, expressed in 1^-1 micromole, which inhibits the proliferation of the cells by 50%) is made after 48 hours contact.
# leukemia P 388 = experiment: Test of leukemia P 388; IP/IP, D1-5; format: in vivo, CDF1 hybrid mice; settings: D1-D5; for Number of survivors: day D30; for T/C %: survival time
# Protocol: (2) In vivo: (GERAN et al., Cancer Chemother., 1972, 2, 07-57):
# (§1) The antitumour activity was tested in vivo on various tumours inoculated in various ways according to the following general protocol:
# (§2) All the male or female mice are inoculated on day D0 with a known quantity of viable tumour cells for ascitic tumours or with a known tumour fragment for solid tumours.
# (§3) They are then distributed into various groups. Each group, corresponding to the animals treated by the product under test, is made up of 10 mice. The product under test is dissolved in distilled water and it is administered n times (Dx-Dy), n, y, and x varying according to the protocol chosen, at the rate of 0.1 ml of solution per 10 g by weight of mice treated and at specific doses for each protocol.
# (§4) The "negative control" group, corresponding to the animals which are not treated by the product, contains 2√N animals, N being equal to or greater than the total number of mice treated by the product in the same experiment.
# (§5) Finally, the tests can also be carried out at the same time as the study of a group called "positive control", of ten animals, which is treated by a molecule, known for its antitumour activity and which can vary according to the protocol chosen, in the same conditions as the groups treated by the product under test.
# (§6) The antitumour activity is evaluated, in the case of ascitic tumours, by considering the increase in the survival time of the animals treated in comparison to that of the animals in the "negative control" group, according to the formula: [formula]
# The criterion for activity varies according to the protocol.
# (§7) Also, a product is considered as toxic at the dose studied when this T/C value is equal to or less than 85%. In addition, a product is also considered as toxic at the dose studied when the weight variation, expressed in grams and calculated by the formula: […]
# "Average weight of the group measured on day 5--Average weight of the same group measured on day 1"
# is equal to or less than 4 g.
# (a) Test of lelukemia P 388; IP/IP, D1-5 (GERAN et al., Cancer Chemother., 1972, 2, 07-57).
# (§8) The tests are carried out with CDF1 hybrid mice inoculated by intraperitoneal route with 10^6 leukemia cells from the P 388 line. The compound under test is administered for 5 successive days (D1-D5) by intraperitoneal route. The positive control for the test is 5-fluorouracile which is administered in the same conditions. The number of surviving animals is evaluated on day D30.
# melanoma B 16 = experiment: Test for melanoma B 16; format: in vivo, BDF1 hybrid mice; settings: D1-D9; for Number of survivors: day D60; for T/C %: survival time
# Protocol: as §1, §2, §3, §4, §5, §6, §7
# (d) Test for melanoma B 16 (GERAN et al., Cancer Chemother., 1972, 2, 07-75).
# The tests are carried out with BDF1 hybrid mice inoculated by intraperitoneal route with 0.5 ml of a homogenate of melanoma B 16 made up from 1 g of tumour in 10 ml of physiological serum. The compound under test is administered for 9 days (D1-D9) by intraperitoneal route. The positive control for the test is Cis-Platine administered in the same conditions. The number of surviving animals is evaluated on day D60.
# leukemia L 1210 = experiment: Test for leukemia L 1210 IP/D1 IV; format: in vivo, CDF1 hybrid mice; settings: for Number of survivors: day D60; for T/C %: survival time
# Protocol: as §1, §2, §3, §4, §5, §6, §7
# as §8, with “10^5” for “10^6”, “L 1210” for “P 388”, “5” for “5 successive”, “5-fluorouracile” for “5-fluorouracile which is”, “D60.” for “D30.”
# (g) Test for leukemia L 1210 IP/D1 IV. (GERAN et al., Cancer Chemother., 1972, 2, 07-57).
# The test is carried out according to the same protocol as that described for test (c), the compound under test being administered by intravenous route only on day D1.
smiles,measurement,setting,value
"CCN(CC)CCCNc1ncc(C)c2c1c1cc(O)ccc1n2C [Derivative No. 11, 1-(3-diethylaminopropylamino)-4,5-dimethyl-8-hydroxy-5H-pyrido[4,3-b]indole]",survival at 312 h,in vivo [1],100%
same,survival at 192 h,in vivo [2]; 40 mg/kg,100%
same,survival at 192 h,in vivo [2]; 50 mg/kg,100%
same,IC50,[3],0.03 µM
same,Median day of survival,leukemia P 388; 2.5 mg/kg IP,17.25 days
same,Variation by weight (g),leukemia P 388; 2.5 mg/kg IP,+1.2 g
same,Number of survivors,leukemia P 388; 2.5 mg/kg IP,0/10
same,T/C %,leukemia P 388; 2.5 mg/kg IP,149%
same,Median day of survival,leukemia P 388; 5 mg/kg IP,19.25 days
same,Variation by weight (g),leukemia P 388; 5 mg/kg IP,+0.7 g
same,Number of survivors,leukemia P 388; 5 mg/kg IP,0/10
same,T/C %,leukemia P 388; 5 mg/kg IP,166%
same,Median day of survival,leukemia P 388; 10 mg/kg IP,23.75 days
same,Variation by weight (g),leukemia P 388; 10 mg/kg IP,+0.2 g
same,Number of survivors,leukemia P 388; 10 mg/kg IP,2/10
same,T/C %,leukemia P 388; 10 mg/kg IP,205%
same,Median day of survival,leukemia P 388; 20 mg/kg IP,7.4 days
same,Variation by weight,leukemia P 388; 20 mg/kg IP,-2.8 g
same,Number of survivors,leukemia P 388; 20 mg/kg IP,0/10
same,T/C %,leukemia P 388; 20 mg/kg IP,64%
same,Median day of survival,melanoma B 16; 1.25 mg/kg IP,32.25 days
same,Variation by weight,melanoma B 16; 1.25 mg/kg IP,-2.5 g
same,Number of survivors,melanoma B 16; 1.25 mg/kg IP,0/10
same,T/C %,melanoma B 16; 1.25 mg/kg IP,133%
same,Median day of survival,melanoma B 16; 2.5 mg/kg IP,35.25 days
same,Variation by weight (g),melanoma B 16; 2.5 mg/kg IP,+0.6 g
same,Number of survivors,melanoma B 16; 2.5 mg/kg IP,0/10
same,T/C %,melanoma B 16; 2.5 mg/kg IP,145%
same,Median day of survival,melanoma B 16; 5 mg/kg IP,41.25 days
same,Variation by weight (g),melanoma B 16; 5 mg/kg IP,+0.2 g
same,Number of survivors,melanoma B 16; 5 mg/kg IP,3/10
same,T/C %,melanoma B 16; 5 mg/kg IP,170%
same,Median day of survival,melanoma B 16; 10 mg/kg IP,19.3 days
same,Variation by weight,melanoma B 16; 10 mg/kg IP,-1.0 g
same,Number of survivors,melanoma B 16; 10 mg/kg IP,0/10
same,T/C %,melanoma B 16; 10 mg/kg IP,79%
same,Median day of survival,leukemia L 1210; 20 mg/kg IV,11.8 days
same,Variation by weight,leukemia L 1210; 20 mg/kg IV,-0.4 g
same,Number of survivors,leukemia L 1210; 20 mg/kg IV,0/10
same,T/C %,leukemia L 1210; 20 mg/kg IV,132%
same,Median day of survival,leukemia L 1210; 40 mg/kg IV,13.3 days
same,Variation by weight,leukemia L 1210; 40 mg/kg IV,-0.2 g
same,Number of survivors,leukemia L 1210; 40 mg/kg IV,0/10
same,T/C %,leukemia L 1210; 40 mg/kg IV,149%
